Measured values reported in ChEMBL document CHEMBL5223082, “Alkyl-Aryl-Vancomycins: Multimodal Glycopeptides with Weak Dependence on the Bacterial Metabolic State” (J Med Chem, 2021).
In brackets after ≈: the same amount, converted by molar mass.

Legend:
Staphylococcus aureus [1] = assay: Antibacterial activity against Vancomycin-resistant Staphylococcus aureus 12 assessed as inhibition of bacterial growth incubated for 18 to 24 hrs by CLSI microbroth dilution method; type: functional; conditions: time 18-24 hrs
Staphylococcus aureus [2] = assay: Potency index, ratio of Vancomycin MIC to test compound MIC for antibacterial activity against Vancomycin-resistant Staphylococcus aureus 12; type: functional
Enterococcus [3] = assay: Potency index, ratio of Vancomycin MIC to test compound MIC for antibacterial activity against Vancomycin-resistant Enterococci NR30903; type: functional, NR 30903
Staphylococcus aureus [4] = assay: Potency index, ratio of Vancomycin MIC to test compound MIC for antibacterial activity against Vancomycin-resistant Staphylococcus aureus 4; type: functional
Enterococcus [5] = assay: Antibacterial activity against Vancomycin-resistant Enterococci ATCC 51575 assessed as inhibition of bacterial growth incubated for 18 to 24 hrs by CLSI microbroth dilution method; type: functional; conditions: time 18-24 hrs
Enterococcus [6] = assay: Potency index, ratio of Vancomycin MIC to test compound MIC for antibacterial activity against Vancomycin-resistant Enterococci ATCC 51559; type: functional
Staphylococcus aureus [7] = assay: Antibacterial activity against Vancomycin-resistant Staphylococcus aureus 1 assessed as inhibition of bacterial growth incubated for 18 to 24 hrs by CLSI microbroth dilution method; type: functional; conditions: time 18-24 hrs
Enterococcus [8] = assay: Antibacterial activity against Vancomycin-resistant Enterococci NR30909 assessed as inhibition of bacterial growth incubated for 18 to 24 hrs by CLSI microbroth dilution method; type: functional; conditions: time 18-24 hrs
Staphylococcus aureus [9] = assay: Antibacterial activity against Vancomycin-resistant Staphylococcus aureus 4 assessed as inhibition of bacterial growth incubated for 18 to 24 hrs by CLSI microbroth dilution method; type: functional; conditions: time 18-24 hrs
Enterococcus [10] = assay: Antibacterial activity against Vancomycin-resistant Enterococci ATCC 51559 assessed as inhibition of bacterial growth incubated for 18 to 24 hrs by CLSI microbroth dilution method; type: functional; conditions: time 18-24 hrs
[11] = Induction of hemolysis in human erythrocytes incubated for 1 hr by microtiter plater reader analysis; type: toxicity, cell-based, Erythrocyte
Enterococcus [12] = assay: Potency index, ratio of Vancomycin MIC to test compound MIC for antibacterial activity against Vancomycin-resistant Enterococci ATCC 51575; type: functional
Staphylococcus aureus [13] = assay: Potency index, ratio of Vancomycin MIC to test compound MIC for antibacterial activity against Vancomycin-resistant Staphylococcus aureus 1; type: functional
Enterococcus [14] = assay: Antibacterial activity against Vancomycin-resistant Enterococci NR30903 assessed as inhibition of bacterial growth incubated for 18 to 24 hrs by CLSI microbroth dilution method; type: functional; conditions: time 18-24 hrs
Enterococcus [15] = assay: Potency index, ratio of Vancomycin MIC to test compound MIC for antibacterial activity against Vancomycin-resistant Enterococci NR30909; type: functional, NR 30909
Staphylococcus aureus [16] = assay: Antibacterial activity against Methicillin-resistant Staphylococcus aureus ATCC 33591 assessed as inhibition of bacterial growth incubated for 18 to 24 hrs by CLSI microbroth dilution method; type: functional; conditions: time 18-24 hrs
Staphylococcus aureus [17] = assay: Potency index, ratio of Vancomycin MIC to test compound MIC for antibacterial activity against Methicillin-resistant Staphylococcus aureus ATCC 33591; type: functional
[18] = Induction of hemolysis in human erythrocytes at 250 uM incubated for 1 hr by microtiter plater reader analysis; type: toxicity, cell-based, Erythrocyte; conditions: read-out: Activity

Structure (SMILES): CCCCCCCCCCNC(=O)c1ccc(CN[C@@]2(C)C[C@H](O[C@H]3[C@H](Oc4c5cc6cc4Oc4ccc(cc4Cl)[C@@H](O)[C@@H](NC(=O)[C@@H](CC(C)C)NC)C(=O)N[C@@H](CC(N)=O)C(=O)N[C@H]6C(=O)N[C@H]4C(=O)N[C@H](C(=O)N[C@H](C(=O)O)c6cc(O)cc(O)c6-c6cc4ccc6O)[C@H](O)c4ccc(c(Cl)c4)O5)O[C@H](CO)[C@@H](O)[C@@H]3O)O[C@@H](C)[C@H]2O)cc1
- MIC (Staphylococcus aureus [1]): 2 µM (≈ 3.45 µg/mL)
- Ratio (Staphylococcus aureus [2]): 390
- Ratio (Enterococcus [3]): 670
- Ratio (Staphylococcus aureus [4]): 390
- MIC (Enterococcus [5]): 0.2 µM (≈ 0.345 µg/mL)
- Ratio (Enterococcus [6]): 670
- MIC (Staphylococcus aureus [7]): 2 µM (≈ 3.45 µg/mL)
- MIC (Enterococcus [8]): 2 µM (≈ 3.45 µg/mL)
- MIC (Staphylococcus aureus [9]): 1 µM (≈ 1.72 µg/mL)
- MIC (Enterococcus [10]): 2 µM (≈ 3.45 µg/mL)
- HC50 at 1 h [11]: 62.5 µM
- Ratio (Enterococcus [12]): 670
- Ratio (Staphylococcus aureus [13]): 390
- MIC (Enterococcus [14]): 2 µM (≈ 3.45 µg/mL)
- Ratio (Enterococcus [15]): 670
- MIC (Staphylococcus aureus [16]): 2 µM (≈ 3.45 µg/mL)

Structure (SMILES): CCCCCCCCNC(=O)c1ccc(CN[C@@]2(C)C[C@H](O[C@H]3[C@H](Oc4c5cc6cc4Oc4ccc(cc4Cl)[C@@H](O)[C@@H](NC(=O)[C@@H](CC(C)C)NC)C(=O)N[C@@H](CC(N)=O)C(=O)N[C@H]6C(=O)N[C@H]4C(=O)N[C@H](C(=O)N[C@H](C(=O)O)c6cc(O)cc(O)c6-c6cc4ccc6O)[C@H](O)c4ccc(c(Cl)c4)O5)O[C@H](CO)[C@@H](O)[C@@H]3O)O[C@@H](C)[C@H]2O)cc1
- MIC (Staphylococcus aureus [1]): 0.3 µM (≈ 0.508 µg/mL)
- Ratio (Staphylococcus aureus [2]): 166
- Ratio (Enterococcus [3]): 166
- Ratio (Staphylococcus aureus [4]): 166
- MIC (Enterococcus [5]): 1 µM (≈ 1.69 µg/mL)
- Ratio (Enterococcus [6]): 166
- Ratio (Staphylococcus aureus [17]): 2
- MIC (Staphylococcus aureus [7]): 4.2 µM (≈ 7.12 µg/mL)
- MIC (Enterococcus [8]): 2.1 µM (≈ 3.56 µg/mL)
- MIC (Staphylococcus aureus [9]): 2.1 µM (≈ 3.56 µg/mL)
- MIC (Enterococcus [10]): 8.3 µM (≈ 14.1 µg/mL)
- HC50 at 1 h [11]: > 250 µM
- Ratio (Enterococcus [12]): 166
- Ratio (Staphylococcus aureus [13]): 166
- MIC (Enterococcus [14]): 4.2 µM (≈ 7.12 µg/mL)
- Ratio (Enterococcus [15]): 166
- MIC (Staphylococcus aureus [16]): 1 µM (≈ 1.69 µg/mL)

Structure (SMILES): CCCCCCCCCCCCCCNC(=O)c1ccc(CN[C@@]2(C)C[C@H](O[C@H]3[C@H](Oc4c5cc6cc4Oc4ccc(cc4Cl)[C@@H](O)[C@@H](NC(=O)[C@@H](CC(C)C)NC)C(=O)N[C@@H](CC(N)=O)C(=O)N[C@H]6C(=O)N[C@H]4C(=O)N[C@H](C(=O)N[C@H](C(=O)O)c6cc(O)cc(O)c6-c6cc4ccc6O)[C@H](O)c4ccc(c(Cl)c4)O5)O[C@H](CO)[C@@H](O)[C@@H]3O)O[C@@H](C)[C@H]2O)cc1
- MIC (Staphylococcus aureus [1]): 4 µM (≈ 7.12 µg/mL)
- MIC (Enterococcus [5]): 4 µM (≈ 7.12 µg/mL)
- MIC (Staphylococcus aureus [7]): 8 µM (≈ 14.2 µg/mL)
- MIC (Enterococcus [8]): 4 µM (≈ 7.12 µg/mL)
- MIC (Staphylococcus aureus [9]): 4 µM (≈ 7.12 µg/mL)
- MIC (Enterococcus [10]): 4 µM (≈ 7.12 µg/mL)
- HC50 at 1 h [11]: 27.5 µM
- MIC (Enterococcus [14]): 2 µM (≈ 3.56 µg/mL)
- MIC (Staphylococcus aureus [16]): 4 µM (≈ 7.12 µg/mL)

Structure (SMILES): CN[C@H](CC(C)C)C(=O)N[C@H]1C(=O)N[C@@H](CC(N)=O)C(=O)N[C@H]2C(=O)N[C@H]3C(=O)N[C@H](C(=O)N[C@H](C(=O)O)c4cc(O)cc(O)c4-c4cc3ccc4O)[C@H](O)c3ccc(c(Cl)c3)Oc3cc2cc(c3O[C@@H]2O[C@H](CO)[C@@H](O)[C@H](O)[C@H]2O[C@H]2C[C@](C)(NCc3ccc(C(=O)NCCC[N+](C)(C)Cc4ccc(-c5ccccc5)cc4)cc3)[C@H](O)[C@H](C)O2)Oc2ccc(cc2Cl)[C@H]1O
- MIC (Staphylococcus aureus [1]): 3.7 µM
- Ratio (Staphylococcus aureus [2]): 47
- Ratio (Enterococcus [3]): 47
- Ratio (Staphylococcus aureus [4]): 47
- MIC (Enterococcus [5]): 14.7 µM
- Ratio (Enterococcus [6]): 47
- MIC (Staphylococcus aureus [7]): 7.3 µM
- MIC (Enterococcus [8]): 3.7 µM
- MIC (Staphylococcus aureus [9]): 7.3 µM
- MIC (Enterococcus [10]): 14.7 µM
- HC50 at 1 h [11]: > 250 µM
- Ratio (Enterococcus [12]): 47
- hemolysis at 1 h, 250 µM [18]: 0%
- Ratio (Staphylococcus aureus [13]): 47
- MIC (Enterococcus [14]): 7.3 µM
- Ratio (Enterococcus [15]): 47
- MIC (Staphylococcus aureus [16]): 0.5 µM

Structure (SMILES): CCCCCCCCNC(=O)C[N+](C)(C)CCCNC(=O)c1ccc(CN[C@@]2(C)C[C@H](O[C@H]3[C@H](Oc4c5cc6cc4Oc4ccc(cc4Cl)[C@@H](O)[C@@H](NC(=O)[C@@H](CC(C)C)NC)C(=O)N[C@@H](CC(N)=O)C(=O)N[C@H]6C(=O)N[C@H]4C(=O)N[C@H](C(=O)N[C@H](C(=O)O)c6cc(O)cc(O)c6-c6cc4ccc6O)[C@H](O)c4ccc(c(Cl)c4)O5)O[C@H](CO)[C@@H](O)[C@@H]3O)O[C@@H](C)[C@H]2O)cc1
- MIC (Staphylococcus aureus [1]): 3.7 µM
- Ratio (Staphylococcus aureus [2]): 750
- Ratio (Enterococcus [3]): 750
- Ratio (Staphylococcus aureus [4]): 750
- MIC (Enterococcus [5]): 14.7 µM
- Ratio (Enterococcus [6]): 750
- MIC (Staphylococcus aureus [7]): 1.8 µM
- MIC (Enterococcus [8]): 0.9 µM
- MIC (Staphylococcus aureus [9]): 3.7 µM
- MIC (Enterococcus [10]): 14.7 µM
- HC50 at 1 h [11]: > 250 µM
- Ratio (Enterococcus [12]): 750
- hemolysis at 1 h, 250 µM [18]: 1%
- Ratio (Staphylococcus aureus [13]): 750
- MIC (Enterococcus [14]): 0.9 µM
- Ratio (Enterococcus [15]): 750
- MIC (Staphylococcus aureus [16]): 0.4 µM
